Test results: US8790874B2, “Device for investigation of a flow conduit” (priority 2008, dated 2014)

Experiments:
Format in all cases: cell-based
mesenteric arteries [1] = assay: PE dose response of mesenteric arteries, conventional pipette cannulation setup; settings: 3.0 μM PE applied to exterior surface, n=5
Text: The device may be used to investigate responses of biological flow conduits. […] In this example, PE was applied to the exterior surface of the flow conduit, and the dose of PE was changed in a stepwise fashion.

mesenteric arteries [2] = assay: PE dose response of mesenteric arteries measured using the device; settings: 3.0 μM PE applied to exterior surface, n=5
Text: An example process of loading a flow conduit, in this case an artery, into this example embodiment of the device is now described. The device was initially flushed with a Bovine serum albumin (BSA) solution to prevent any unwanted adhesion of arteries to the walls of the main channel or culture chamber. […] As an alternative to the reversible fixation of the artery used here, an irreversible fixation method may be used, as discussed above.
Upon fixation (e.g., using a reversible fixation method), the lumen of the artery was perfused by operating a syringe pump, connected to an inlet of the culture channel, in the perfusion mode. By connecting the inlet and outlet of the culture channel to different hydrostatic pressure levels, a flow through the culture chamber was achieved while maintain a defined transmural pressure difference across the wall of the artery. A flow through the culture chamber was achieved while maintaining a defined transmural pressure difference (i.e., P1−P3 in FIG. 1) by superfusing the culture chamber with a second syringe pump that operates in the perfusion mode, connected at the inlet of the culture channel. The outlet of the culture channel was thus led to a reduced hydrostatic pressure level. […]

mouse mesenteric vessel = assay: Constriction of a mesenteric vessel in the device, single dose of PE; settings: 3.0 μM PE, representative tracing
Experimental: In another example, the device was used to investigate a mesenteric vessel. […] In this example, a mouse mesenteric vessel was used, and a single does of PE was administered. The PE was applied to the exterior surface of the flow conduit. a) is a representative tracing of a mesenteric vessel's response to 3.0 μM PE, with a sustained constriction of 41.8%, measured in freshly isolated arteries that were immediately subjected to the stimulation with PE. b) is a representative tracing of a single mesenteric vessel kept in culture for 24 hours on the device prior to testing the response to PE, showing a sustained constriction of 41.4% to 3.0 μM PE.

mouse mesenteric artery = assay: FURA-2 Ca2+ ratiometric measurements on a mesenteric artery fixed on the device; settings: stimulation with 3.0 μM PE; return to baseline following washout
Text: The smooth muscle cells in the artery are stained.

## CNC[C@H](O)c1cccc(O)c1 [PE, phenylephrine]
Mesenteric arteries [1]
  maximal outer diameter constriction: 44.5+/−2.5%
Mesenteric arteries [2]
  maximal outer diameter constriction: 42.2+/−3.8%
Mouse mesenteric vessel; freshly isolated arteries, immediately stimulated
  sustained constriction: 41.8%
Mouse mesenteric vessel; vessel kept in culture for 24 hours on the device before testing
  sustained constriction: 41.4%
Mouse mesenteric artery
  FURA-2 ratio (F340nm/F380nm): increase in FURA-2 ratio
